Measurements taken from US20240190849A1, “AMINOPYRIMIDINE COMPOUNDS AND METHODS OF THEIR USE” (TYRA BIOSCIENCES, INC., priority 2021, published 2024).

How the values were obtained:
FGFR1 = biological target: T1, FGFR1 (Homo sapiens, UniProt P11362); experiment: Kinase binding assay (kinase-tagged T7 phage, affinity beads, qPCR readout), FGFR1; conditions: FGFR binding data
T1 construct: made in house; host or cells: E. coli derived from BL21, infected with T7 phage
Method in brief: (§1)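 Competition binding: T7 phage-tagged kinases incubated with immobilized biotinylated ligand beads and test compound (11-point 3-fold series, 0.9% DMSO final) for 1 h at room temperature. Bound kinase eluted and quantified by qPCR. Kd from Hill equation fit, slope fixed at −1.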

FGFR3 (V555M) = biological target: T2, FGFR3 (V555M) (Homo sapiens, UniProt P22607, V555M); experiment: Kinase binding assay (kinase-tagged T7 phage, affinity beads, qPCR readout), FGFR3 (V555M); conditions: FGFR binding data
T2 construct: made in house; host or cells: E. coli derived from BL21, infected with T7 phage
T2 sequence (P22607 23-806 V555M): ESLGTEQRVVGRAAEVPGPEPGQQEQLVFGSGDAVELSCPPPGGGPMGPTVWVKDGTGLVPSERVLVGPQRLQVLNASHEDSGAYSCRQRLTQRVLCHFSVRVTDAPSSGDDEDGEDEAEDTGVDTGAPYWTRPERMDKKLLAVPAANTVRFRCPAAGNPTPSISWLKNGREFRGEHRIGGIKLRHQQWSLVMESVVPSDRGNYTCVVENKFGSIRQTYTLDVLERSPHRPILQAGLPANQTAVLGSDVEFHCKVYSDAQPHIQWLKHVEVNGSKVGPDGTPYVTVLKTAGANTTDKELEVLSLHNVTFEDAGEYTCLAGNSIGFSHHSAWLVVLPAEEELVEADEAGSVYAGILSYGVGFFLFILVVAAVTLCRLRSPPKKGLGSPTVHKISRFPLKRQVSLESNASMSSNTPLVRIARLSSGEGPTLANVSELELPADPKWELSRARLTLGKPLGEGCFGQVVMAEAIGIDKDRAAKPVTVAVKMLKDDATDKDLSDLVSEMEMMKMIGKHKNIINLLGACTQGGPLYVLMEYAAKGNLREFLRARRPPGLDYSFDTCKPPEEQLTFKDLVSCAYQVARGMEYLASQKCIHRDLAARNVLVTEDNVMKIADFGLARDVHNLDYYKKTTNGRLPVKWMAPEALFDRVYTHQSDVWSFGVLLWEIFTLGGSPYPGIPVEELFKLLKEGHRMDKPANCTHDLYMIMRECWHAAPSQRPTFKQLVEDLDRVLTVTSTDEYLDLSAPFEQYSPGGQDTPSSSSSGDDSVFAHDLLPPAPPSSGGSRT
Method in brief: as §1

FGFR2 = biological target: T3, FGFR2 (Homo sapiens, UniProt P21802); experiment: Kinase binding assay (kinase-tagged T7 phage, affinity beads, qPCR readout), FGFR2; conditions: FGFR binding data
T3 construct: made in house; host or cells: E. coli derived from BL21, infected with T7 phage
T3 sequence (P21802 22-821): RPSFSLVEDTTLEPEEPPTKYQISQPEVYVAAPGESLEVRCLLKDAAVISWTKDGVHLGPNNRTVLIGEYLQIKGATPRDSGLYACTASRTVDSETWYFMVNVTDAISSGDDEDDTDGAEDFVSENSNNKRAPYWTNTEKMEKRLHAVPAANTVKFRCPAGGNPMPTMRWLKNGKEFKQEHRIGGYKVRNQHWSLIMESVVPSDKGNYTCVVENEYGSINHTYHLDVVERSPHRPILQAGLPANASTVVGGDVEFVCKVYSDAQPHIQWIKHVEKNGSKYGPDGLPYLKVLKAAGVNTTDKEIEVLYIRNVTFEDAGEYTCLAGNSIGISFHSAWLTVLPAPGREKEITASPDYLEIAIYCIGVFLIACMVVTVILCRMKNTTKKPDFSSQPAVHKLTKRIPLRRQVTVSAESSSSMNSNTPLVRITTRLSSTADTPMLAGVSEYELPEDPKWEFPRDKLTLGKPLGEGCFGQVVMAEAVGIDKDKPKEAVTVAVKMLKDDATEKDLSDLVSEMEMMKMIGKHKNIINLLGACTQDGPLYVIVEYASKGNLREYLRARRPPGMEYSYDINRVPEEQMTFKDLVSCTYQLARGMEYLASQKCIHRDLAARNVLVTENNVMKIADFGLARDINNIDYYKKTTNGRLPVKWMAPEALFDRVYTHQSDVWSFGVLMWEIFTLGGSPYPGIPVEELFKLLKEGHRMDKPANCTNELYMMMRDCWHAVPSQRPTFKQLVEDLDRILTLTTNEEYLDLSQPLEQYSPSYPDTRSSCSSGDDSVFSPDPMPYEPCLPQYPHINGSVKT
Method in brief: as §1

FGFR3 = biological target: T4, FGFR3 (Homo sapiens, UniProt P22607); experiment: Kinase binding assay (kinase-tagged T7 phage, affinity beads, qPCR readout), FGFR3; conditions: FGFR binding data
T4 construct: made in house; host or cells: E. coli derived from BL21, infected with T7 phage
T4 sequence (P22607 23-806): as the sequence (P22607 23-806 V555M) above, with M533V counted along it
Method in brief: as §1

[1] = tested on: RT112/84 (Bladder Cancer), FGFR3-TACC3 fusion; experiment: Cancer cell viability assay (Cell Titer-Glo), RT112/84; format: cell-based; conditions: Homo sapiens, RT112/84 cells, 72 hours
Text: (§2) RT112/84, UM-UC-14, SNU-16 and KG-1 Cancer Cell Line Cell Viability Assays
(§3) To detect the change of intracellular ATP by Cell Titer-Glo@ and to evaluate the inhibitory effect of the compounds on cancer cell lines by determining the in vitro IC50 value of the compounds.
(§4) Cell Titer-Glo@ 2.0 Luminescent cell viability assay reagent was purchased from Promega (Madison, WI). RT112/84, SNU-16, and KG-1 cell lines were purchased from American Type Culture Collection (Manassas, VA). UM-UC-14 cell line was purchased from Sigma (St. Louis, MO). RT112/84, UM-UC-14, SNU-16, and KG-1 cells were cultured in RPMI1640 media supplemented with 10% fetal bovine serum. Cultures were maintained at 37° C. in a humidified atmosphere of 5% CO2 and 95% air.
(§5) Cell Viability Assay Procedure: Cells were plated in 96-well clear bottom/white plates (Corning #3903) at 10,000 cells/well in 100 μl of media, incubated overnight. The next day, test compound DMSO stock solutions were made at 10 mM and 2 μM final concentration. Compounds were then added to cells in a 9-dose, […] dilution series starting at 30 μM with an HP 300e Digital Dispenser (each dose was applied in triplicate). DMSO was backfilled to each well up to 301 nL total volume of test compound+DMSO, and a total of 301 nL DMSO was added to a control/no test compound well in triplicate. The cells in cell culture plates were incubated with the compounds at 37° C. and 5% CO2 for 72 hours. Then 50 μl of Cell Titer Glo 2.0 reagent was added to each well of the cell culture plates. The contents were covered from light and mixed on an orbital shaker at room temperature for 10 min. Luminescence was recorded by a Synergy H1 Microplate Reader (Biotek, Winooski, VT). Cells were assessed as a percentage of DMSO only treated control cells. Curves were plotted and IC50 values were calculated using the GraphPad Prism 8 program based on a sigmoidal dose-response equation (4 parameter).

[2] = tested on: UM-UC-14 (Bladder Cancer), FGFR3(S249C); experiment: Cancer cell viability assay (Cell Titer-Glo), UM-UC-14; format: cell-based; conditions: UMUC14, UM-UC-14 cells, 72 hours
Text: as §2, §3, §4, §5

[3] = tested on: SNU-16 (Gastric Carcinoma), FGFR2 amplification; experiment: Cancer cell viability assay (Cell Titer-Glo), SNU-16; format: cell-based; conditions: Homo sapiens, SNU-16 cells, 72 hours, read-out: SNU16 FGFR2 (IC50 nM)
Text: as §2, §3, §4, §5

T1 sequence (P11362 22-822): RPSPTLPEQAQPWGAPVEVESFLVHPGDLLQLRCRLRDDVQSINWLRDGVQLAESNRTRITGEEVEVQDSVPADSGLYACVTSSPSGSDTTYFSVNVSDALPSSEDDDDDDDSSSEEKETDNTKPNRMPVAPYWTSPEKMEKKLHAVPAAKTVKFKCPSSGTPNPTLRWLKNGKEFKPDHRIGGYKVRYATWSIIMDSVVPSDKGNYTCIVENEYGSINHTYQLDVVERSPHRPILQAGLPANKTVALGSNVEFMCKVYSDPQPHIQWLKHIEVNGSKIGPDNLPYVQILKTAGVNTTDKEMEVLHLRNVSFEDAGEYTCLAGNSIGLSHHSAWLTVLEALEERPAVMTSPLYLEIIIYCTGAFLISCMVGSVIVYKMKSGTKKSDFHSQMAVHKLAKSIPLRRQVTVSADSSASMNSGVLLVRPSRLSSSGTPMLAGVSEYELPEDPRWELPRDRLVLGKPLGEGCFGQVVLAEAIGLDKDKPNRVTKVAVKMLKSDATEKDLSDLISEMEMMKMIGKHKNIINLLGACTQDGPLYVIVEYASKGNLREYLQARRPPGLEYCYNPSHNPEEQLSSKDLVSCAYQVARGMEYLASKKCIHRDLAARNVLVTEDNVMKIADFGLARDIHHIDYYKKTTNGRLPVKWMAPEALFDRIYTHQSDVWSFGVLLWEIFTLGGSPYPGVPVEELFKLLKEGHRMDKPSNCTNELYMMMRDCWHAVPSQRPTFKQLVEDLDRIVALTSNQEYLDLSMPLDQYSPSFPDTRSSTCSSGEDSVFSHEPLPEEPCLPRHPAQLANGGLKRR

SMILES	Kd (FGFR1) [nM]	Kd (FGFR3 (V555M)) [nM]	Kd (FGFR2) [nM]	Kd (FGFR3) [nM]	IC50 [1] [nM]	IC50 [2] [nM]	IC50 [3] [nM]
C=CC(=O)Nc1ccc2c(ccn2-c2nc(Nc3ccc(N4CCN(C)CC4)cc3)ncc2Cl)c1 [Example 1, N-[1-[5-chloro-2-[4-(4-methylpiperazin-1-yl)anilino]pyrimidin-4-yl]indol-5-yl]prop-2-enamide]	0.1 to 100	0.1 to 100	0.1 to 100	0.1 to 100	100 to 250	–	–
C=CC(=O)Nc1ccc2c(c1)c(C)cn2-c1nc(Nc2cnn(C)c2)ncc1C#N [Example 32, N-[1-[5-cyano-2-[(1-methylpyrazol-4-yl)amino]pyrimidin-4-yl]-3-methyl-indol-5-yl]prop-2-enamide]	0.1 to 100	0.1 to 100	0.1 to 100	0.1 to 100	100 to 250	–	–
C=CC(=O)Nc1ccc2c(c1)c(C)cn2-c1nc(Nc2cn(C)cn2)ncc1C [Example 36, N-[3-methyl-1-[5-methyl-2-[(1-methylimidazol-4-yl)amino]pyrimidin-4-yl]indol-5-yl]prop-2-enamide]	0.1 to 100	0.1 to 100	0.1 to 100	0.1 to 100	100 to 250	0.1 to 100	–
C=CC(=O)Nc1ccc2c(c1)c(C)cn2-c1nc(Nc2ccc(N3CCOCC3)cc2)ncc1C#N [Example 38, N-[1-[5-cyano-2-(4-morpholinoanilino)pyrimidin-4-yl]-3-methyl-indol-5-yl]prop-2-enamide]	0.1 to 100	0.1 to 100	0.1 to 100	0.1 to 100	0.1 to 100	–	–
C=CC(=O)Nc1ccc2c(c1)c(C)cn2-c1nc(Nc2c(C)nn(C)c2C)ncc1Cl [Example 41, N-[1-[5-chloro-2-[(1,3,5-trimethylpyrazol-4-yl)amino]pyrimidin-4-yl]-3-methyl-indol-5-yl]prop-2-enamide]	100 to 250	0.1 to 100	0.1 to 100	0.1 to 100	250 to 1000	–	–
C=CC(=O)Nc1ccc2c(-c3nc(Nc4ccc(N5CCN(C)CC5)cc4)ncc3Cl)cn(C)c2c1 [Example 50, N-[3-[5-chloro-2-[4-(4-methylpiperazin-1-yl)anilino]-pyrimidin-4-yl]-1-methyl-indol-6-yl]prop-2-enamide]	–	–	–	–	0.1 to 100	–	–
C=CC(=O)Nc1ccc2c(c1)c(C)cn2-c1nc(Nc2ccc(CN3CCOCC3)c(F)c2)ncc1Cl [Example 68, N-[1-[5-chloro-2-[3-fluoro-4-(morpholinomethyl)anilino]pyrimidin-4-yl]-3-methyl-indol-5-yl]prop-2-enamide]	0.1 to 100	0.1 to 100	0.1 to 100	0.1 to 100	0.1 to 100	0.1 to 100	–
C=CC(=O)Nc1ccc2c(c1)c(C)cn2-c1nc(Nc2ccnn2C)ncc1F [Example 69, N-[1-[5-fluoro-2-[(2-methylpyrazol-3-yl)amino]pyrimidin-4-yl]-3-methyl-indol-5-yl]prop-2-enamide]	100 to 250	0.1 to 100	0.1 to 100	0.1 to 100	0.1 to 100	0.1 to 100	–
C=CC(=O)Nc1ccc2c(c1)c(C)cn2-c1nc(Nc2cn(C)nc2C#N)ncc1Cl [Example 70, N-[1-[5-chloro-2-[(3-cyano-1-methyl-pyrazol-4-yl)amino]pyrimidin-4-yl]-3-methyl-indol-5-yl]prop-2-enamide]	100 to 250	0.1 to 100	0.1 to 100	0.1 to 100	250 to 1000	–	–
C=CC(=O)Nc1ccc2c(c1)c(C)cn2-c1nc(Nc2cccc(CN3CCOCC3)c2)ncc1Cl [Example 78, N-[1-[5-chloro-2-[3-(morpholinomethyl)anilino]pyrimidin-4-yl]-3-methyl-indol-5-yl]prop-2-enamide]	0.1 to 100	0.1 to 100	0.1 to 100	0.1 to 100	0.1 to 100	–	0.1 to 100
C=CC(=O)Nc1ccc2c(c1)c(C)cn2-c1nc(Nc2cnn(CCO)c2)ncc1Cl [Example 89, N-[1-[5-chloro-2-[[1-(2-hydroxyethyl)pyrazol-4-yl]amino]pyrimidin-4-yl]-3-methyl-indol-5-yl]prop-2-enamide]	0.1 to 100	0.1 to 100	0.1 to 100	0.1 to 100	–	0.1 to 100	0.1 to 100
C=CC(=O)Nc1ccc2c(c1)c(C)cn2-c1nc(Nc2cnn(CCO)c2)ncc1F [Example 90, N-[1-[5-fluoro-2-[[1-(2-hydroxyethyl)pyrazol-4-yl]amino]pyrimidin-4-yl]-3-methyl-indol-5-yl]prop-2-enamide]	0.1 to 100	0.1 to 100	0.1 to 100	0.1 to 100	–	0.1 to 100	0.1 to 100
C=CC(=O)Nc1ccc2c(c1)c(C)cn2-c1nc(Nc2cnn(CCO)c2)ncc1C [Example 121, N-[1-[2-[[1-(2-hydroxyethyl)pyrazol-4-yl]amino]-5-methyl-pyrimidin-4-yl]-3-methyl-indol-5-yl]prop-2-enamide]	0.1 to 100	0.1 to 100	0.1 to 100	0.1 to 100	0.1 to 100	0.1 to 100	0.1 to 100
C=CC(=O)Nc1ccc2c(-c3ccnc(Nc4cnn(C(F)(F)F)c4)n3)cn(C)c2c1 [Example 184, N-[1-methyl-3-[2-[[1-(trifluoromethyl)pyrazol-4-yl]amino]pyrimidin-4-yl]indol-6-yl]prop-2-enamide]	250 to 1000	0.1 to 100	0.1 to 100	0.1 to 100	–	0.1 to 100	0.1 to 100
C=CC(=O)Nc1ccc2c(c1)c(C)cn2-c1nc(Nc2cnn(C[C@@H](C)O)c2)ncc1F [Example 185, N-[1-[5-Fluoro-2-[[1-[(2R)-2-hydroxypropyl]pyrazol-4-yl]amino]pyrimidin-4-yl]-3-methyl-indol-5-yl]prop-2-enamide]	0.1 to 100	0.1 to 100	0.1 to 100	0.1 to 100	0.1 to 100	–	0.1 to 100
C=CC(=O)Nc1ccc2c(c1)c(C)cn2-c1nc(Nc2cnn(C[C@H](C)O)c2)ncc1F [Example 186, N-[1-[5-Fluoro-2-[[1-[(2S)-2-hydroxypropyl]pyrazol-4-yl]amino]pyrimidin-4-yl]-3-methyl-indol-5-yl]prop-2-enamide]	0.1 to 100	0.1 to 100	0.1 to 100	0.1 to 100	0.1 to 100	–	0.1 to 100
C=CC(=O)Nc1ccc2c(c1)c(C)cn2-c1nc(Nc2cn(C)nc2C)ncc1C [Example 187, N-[1-[2-[(1,3-dimethylpyrazol-4-yl)amino]-5-methyl-pyrimidin-4-yl]-3-methyl-indol-5-yl]prop-2-enamide]	0.1 to 100	0.1 to 100	0.1 to 100	0.1 to 100	0.1 to 100	–	0.1 to 100
C=CC(=O)Nc1ccc2c(-c3ccnc(Nc4cnn(C(F)F)c4)n3)cn(C)c2c1 [Example 188, N-[3-[2-[[1-(difluoromethyl)pyrazol-4-yl]amino]pyrimidin-4-yl]-1-methyl-indol-6-yl]prop-2-enamide]	0.1 to 100	0.1 to 100	0.1 to 100	0.1 to 100	0.1 to 100	0.1 to 100	–
C=CC(=O)Nc1ccc2c(-c3ccnc(Nc4cnn(C5CCC5)c4)n3)cn(C)c2c1 [Example 189, N-[3-[2-[(1-cyclobutylpyrazol-4-yl)amino]pyrimidin-4-yl]-1-methyl-indol-6-yl]prop-2-enamide]	0.1 to 100	0.1 to 100	0.1 to 100	0.1 to 100	0.1 to 100	0.1 to 100	–
